Experimental data from patent US10774052B2, “Heteroaryl compounds and uses thereof” (Celgene CAR LLC, priority 2013, dated 2020).
Where two headings read alike, the source gives them in different places.

Legend:
[1] = system: pFGFR4 in Huh7 cells; assay: FGFR4 signaling, pFGFR4 (Huh); MSD (Method B); assay type: cell-based; conditions: Homo sapiens
[2] = system: pFGFR4 in MDA-MB-453 cells; assay: FGFR4 signaling, pFGFR4 (MDA); Western blot (Method A), MSD (Method B), ELISA (Method C); assay type: cell-based; conditions: Homo sapiens, Method B (MSD) for signaling EC50 determination
Procedure: The MDA-MB-453 protein concentrations were determined by a BCA Assay (Pierce, Rockford, Ill.). A sample of 50-100 μg of each lysate was separated by a 4-12% gradient (SDS-PAGE (Invitrogen)), transferred to a nitrocellulose membrane (Biorad, Hercules, Calif.), and probed with specific antibodies. Phospho-protein signals were quantitated using Odyssey Infrared Imaging (Li-Cor Biosciences).
To assess phospho-FGFR signaling, the blots were probed with anti-Phospho-FGFR (Y653/Y654) and total anti-FGFR antibodies. The phospho-FGFR signal was normalized to total FGFR expression for each sample.

[3] = Huh-7, Huh7 cells, read-out: Signaling EC50 (nM) pFGFR4 (Huh)

EC50 ([2]; MDA-MB-453 cells) [nM]	SMILES	EC50 [1, 3] [nM]	EC50 ([2]; MDA-MB-453, MDA-MB-453 cells) [nM]	EC50 ([1]; Huh-7, read-out: Signaling EC50 (nM) pFGFR4 (Huh)) [nM]
101 to 500	C=CC(=O)NC1CCCCC1Nc1ncc2c(n1)N(CC#N)C(=O)N(c1c(Cl)c(OC)cc(OC)c1Cl)C2 (racemic) [Compound I-47]	501 to 999		
101 to 500	C=CC(=O)NC1CCCCC1Nc1ncc2c(n1)N(CCOC)C(=O)N(c1c(Cl)c(OC)cc(OC)c1Cl)C2 (racemic) [Compound I-61]	101 to 500		
101 to 500	C=CC(=O)NC1CCCCC1Nc1ncc2c(n1)N(Cc1ccccc1)C(=O)N(c1c(Cl)c(OC)cc(OC)c1Cl)C2 (racemic) [Compound I-63]	< 100		
	C=CC(=O)NC1CCCCC1Nc1ncc2c(n1)N(C1CC1)C(=O)N(c1c(Cl)c(OC)cc(OC)c1Cl)C2 (racemic) [Compound I-68]	501 to 999	101 to 500	
	C=CC(=O)NC1CCCCC1Nc1ncc2c(n1)N(C)C(=O)N(c1cc(OC)cc(OC)c1Cl)C2 (racemic) [Compound I-76]	> 1000	501 to 999	
	C=CC(=O)NC1CCCCC1Nc1ncc2c(n1)N(CC(F)F)C(=O)N(c1c(Cl)c(OC)cc(OC)c1Cl)C2 (racemic) [Compound I-105]	101 to 500	101 to 500	
	C=CC(=O)NC1CCCCC1Nc1ncc2c(n1)N(CCF)C(=O)N(c1c(Cl)c(OC)cc(OC)c1Cl)C2 (racemic) [Compound I-106]	101 to 500	101 to 500	
	C=CC(=O)NC1CCCCC1Nc1ncc2c(n1)N(CC(F)F)C(=O)N(c1cc(OC)cc(OC)c1Cl)C2 (racemic) [Compound I-107]	> 1000	501 to 999	
	C=CC(=O)NC1CCCCC1Nc1ncc2c(n1)N(CCF)C(=O)N(c1cc(OC)cc(OC)c1Cl)C2 (racemic) [Compound I-111]	> 1000	501 to 999	
101 to 500	C=CC(=O)NC1CC=CCC1Nc1ncc2c(n1)N(C)C(=O)N(c1c(Cl)c(OC)cc(OC)c1Cl)C2 (racemic) [Compound I-113]	101 to 500		
	C=CC(=O)NC1CN(C)CC1Nc1ncc2c(n1)N(C)C(=O)N(c1c(Cl)c(OC)cc(OC)c1Cl)C2 (racemic) [Compound I-138]	101 to 500	101 to 500	
101 to 500	C=CC(=O)NC1CN(C(C)=O)CC1Nc1ncc2c(n1)N(C)C(=O)N(c1c(Cl)c(OC)cc(OC)c1Cl)C2 (racemic) [Compound I-139]	101 to 500		
101 to 500	C=CC(=O)Nc1ccccc1Nc1ncc2c(n1)N(C)C(=O)N(c1cc(OC)cc(OC)c1)C2 [Compound I-5]	101 to 500		
< 100	C=CC(=O)Nc1cc(N2CCN(CCOC)CC2)ccc1Nc1ncc2c(n1)N(Cc1cccc(NC(=O)CC)c1)C(=O)N(c1cc(OC)cc(OC)c1)C2 [Compound I-9]	101 to 500		
	C=CC(=O)Nc1cc(N(C)CCOC)ccc1Nc1ncc2c(n1)N(Cc1ccccc1)C(=O)N(c1cc(OC)cc(OC)c1)C2 [Compound I-13]	101 to 500	101 to 500	
	C=CC(=O)N[C@H]1CCCC[C@H]1Nc1ncc2cc(-c3c(Cl)c(OC)cc(OC)c3Cl)c(=O)n(C)c2n1 [Compound I-223]			< 100
	C=CC(=O)N[C@H]1CCCC[C@H]1Nc1ncc2c(n1)N(C)C(=O)N(c1c(F)c(OC)cc(OC)c1Br)C2 [Compound I-228]	101 to 500		
	C=CC(=O)Nc1cc(OC)ccc1Nc1ncc2cc(-c3c(Cl)c(OC)cc(OC)c3Cl)c(=O)n(C)c2n1 [Compound I-242]	< 100		
	C=CC(=O)Nc1cc(C)ccc1Nc1ncc2cc(-c3c(Cl)c(OC)cc(OC)c3Cl)c(=O)n(C)c2n1 [Compound I-243]	< 100		
	C=CC(=O)Nc1ccccc1Nc1ncc2cc(-c3c(Cl)c(OC)cc(OC)c3Cl)c(=O)n(C)c2n1 [Compound I-244]	< 100		
	C=CC(=O)Nc1cc(F)ccc1Nc1ncc2cc(-c3c(Cl)c(OC)cc(OC)c3Cl)c(=O)n(C)c2n1 [Compound I-245]	< 100		
	C=CC(=O)NC1COCC1Nc1ncc2c(n1)N(C)C(=O)N(c1cc(C(=O)Nc3cccc(C(C)(C)C#N)c3)ccc1Cl)C2 (centres unmarked) [Compound I-246]	101 to 500		
	C=CC(=O)NC1COCC1Nc1ncc2c(n1)N(C)C(=O)N(c1cc(C(=O)Nc3cccc(C(C)(C)C)c3)ccc1Cl)C2 (centres unmarked) [Compound I-247]	< 100		
